From patent publication EP3981864A1, “DETERGENT COMPOSITION” (priority 2020, dated 2022)

Tests used:
[1] = target: T1, Arabidopsis thaliana αDOX (SEQ ID NO: 10), fatty acid alpha-dioxygenase, Q9C9U3, variant with N-terminal His-tag, MBP tag and TEV site SEQ ID NO: 267 (comparati (Arabidopsis thaliana, UniProt Q9C9U3)); experiment: Alpha-dioxygenase activity assay (oxygen consumption, TON); assay type: biochemical; conditions: fatty acid 100 µM, enzyme 6 ppm, 50 mM HEPES pH 9.0, 37°C; initial rate of oxygen consumption / enzyme concentration
T1 construct: His-tag (N); MBP tag (N); TEV protease cleavage site (N); made in house; host or cells: Escherichia coli BL21 (DE3), modified pET28a
T1 sequence (Q9C9U3 21-631): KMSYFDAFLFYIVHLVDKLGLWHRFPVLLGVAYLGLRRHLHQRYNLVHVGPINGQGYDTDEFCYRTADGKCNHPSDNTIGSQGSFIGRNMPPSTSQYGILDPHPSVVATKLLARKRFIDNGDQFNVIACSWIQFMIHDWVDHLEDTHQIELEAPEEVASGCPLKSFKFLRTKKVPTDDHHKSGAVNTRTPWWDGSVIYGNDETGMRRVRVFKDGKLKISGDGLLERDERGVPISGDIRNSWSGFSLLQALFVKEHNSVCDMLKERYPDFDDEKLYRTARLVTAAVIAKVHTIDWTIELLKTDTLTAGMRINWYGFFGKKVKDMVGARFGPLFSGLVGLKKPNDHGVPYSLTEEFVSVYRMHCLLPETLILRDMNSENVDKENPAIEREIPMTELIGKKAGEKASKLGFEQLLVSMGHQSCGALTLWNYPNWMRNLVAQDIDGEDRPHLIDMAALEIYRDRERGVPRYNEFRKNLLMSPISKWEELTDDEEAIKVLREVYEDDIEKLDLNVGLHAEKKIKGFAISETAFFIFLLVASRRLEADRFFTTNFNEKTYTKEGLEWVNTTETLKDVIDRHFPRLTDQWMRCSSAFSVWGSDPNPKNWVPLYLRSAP
Text: Arabidopsis thaliana αDOX (SEQ ID NO: 10) is a fatty acid alpha-dioxygenase that converts fatty acids into the corresponding 2-hydroperoxy fatty acids and is included as a comparative example of the present invention. A codon optimized gene (SEQ ID NO: 266) encoding for an alpha-dioxygenase variant was designed and synthesized by Genscript. After synthesis, the gene was cloned into a modified version of pET28a, such as the final plasmid encoded for a αDOX variant including an N-terminal amino acid sequence containing a His-tag, an MBP tag, and a TEV protease cleavage site (SEQ ID NO: 267). For heterologous expression, Escherichia coli BL21 (DE3) cells were transformed with the recombinant plasmid and a single colony was inoculated into LB medium containing kanamycin (50 mg/L). A pre-starter culture was then inoculated into flasks containing TB Media supplemented with kanamycin (50 mg/L) and incubated at 37 °C. At an OD600nm about 3.8, IPTG (final concentration 0.1 mM) and 5-aminolevulinic acid (final concentration 0.25 mM) were added to the culture and further incubated at 16 °C for 16 h. Cells were harvested by centrifugation and the pellet was lysed. After centrifugation, the supernatant was collected, and the protein was purified by one-step purification using Ni-NTA affinity chromatography and standard protocols known in the art. The protein was stored in 1×PBS buffer containing 10% Glycerol and at pH 7.4. The purified enzyme was stored at -80 °C until use.
Reactions with alpha-dioxygenases were performed as follows. An aliquot of fatty acid in ethanol (final concentration 100 µM) was resuspended in buffer (50 mM HEPES at pH 9.0) in a scintillation vial. The reaction was started by addition of enzyme (final concentration 6 ppm). The reaction was incubated for up to 10 minutes at 37°C with 200 rpm agitation and the conversion was monitored using an oxygen sensor. The TON (in s-1) were calculated as the ratio between the initial rate of oxygen consumption (in µM/s) and the concentration of enzyme (in µM). […]

[2] = tested on: Pseudomonas alcaligenes αDOX (SEQ ID NO: 12), fatty acid alpha-dioxygenase, U3BA19, N-terminal His-tag variant SEQ ID NO: 271 (comparative); experiment: as above; assay type: biochemical; conditions: fatty acid 100 µM, enzyme 6 ppm, 50 mM HEPES pH 9.0, 37°C; initial rate of oxygen consumption / enzyme concentration
Text: Pseudomonas alcaligenes αDOX (SEQ ID NO: 12) is a fatty acid alpha-dioxygenase that converts fatty acids into the corresponding 2-hydroperoxy fatty acids and is included as a comparative example of the present invention. A codon optimized gene (SEQ ID NO: 270) encoding for an alpha-dioxygenase variant (SEQ ID NO: 271), including an N-terminal amino acid sequence containing a His-tag was designed and synthesized by Genscript. After gene synthesis, the protein was expressed and purified. In brief, the complete synthetic gene sequence was subcloned into a pET30a vector using the NdeI/HindIII cloning sites. For heterologous expression, Escherichia coli BL21 (DE3) cells were transformed with the recombinant plasmid and a single colony was inoculated into LB medium containing kanamycin (50 mg/L). A pre-starter culture was then inoculated into flasks containing Magic Media (Thermo Fisher, Catalog # K6803) supplemented with kanamycin (50 mg/L) and incubated at 16 °C for 72 h. At an OD600nm = 0.5 - 1.0, 5-aminolevulinic acid (final concentration 0.5 mM) was added. Cells were harvested by centrifugation at 5000 rpm and 4°C and the pellet was lysed using a bacterial cell lysis buffer (B-PER - Themo Fisher, Waltham, MA). After centrifugation, the supernatant was collected, and the protein was purified by one-step purification using HisPur™ Ni-NTA Spin Columns (Thermo Scientific, Catalog # 88226) and standard protocols known in the art. The protein was concentrated using a 10 kDa MW cutoff Amicon Ultra centrifugal filter unit (Millipore Sigma, Catalog# UFC901024), followed by desalting using a disposable PD-10 desalting column (GE Healthcare Life Sciences, Catalog# 17085101) and a buffer containing 50 mM Tris-HCl, 500 mM NaCl, and 10% Glycerol at pH 8.0. […]
Reactions with alpha-dioxygenases were performed as follows. […] The reaction was incubated for up to 10 minutes at 37°C with 200 rpm agitation and the conversion was monitored using an oxygen sensor. The TON (in s-1) were calculated as the ratio between the initial rate of oxygen consumption (in µM/s) and the concentration of enzyme (in µM). […]

CCCCCCCC/C=C\CCCCCCCC(=O)O [Oleic Acid]
Oleic Acid, TON [1]: 0.13 s⁻¹
Oleic Acid, TON [2]: 0.00 s⁻¹

CCCCCCCCCCCCCCCC(=O)O [Palmitic Acid]
Palmitic Acid, TON [1]: 0.54 s⁻¹
Palmitic Acid, TON [2]: 0.36 s⁻¹

CCCCCCCCCCCCCCCCCC(=O)O [Stearic Acid]
Stearic Acid, TON [1]: 0.13 s⁻¹
Stearic Acid, TON [2]: 0.21 s⁻¹
